For 1 compound, Force results are on record in patent US11559482B2, “Biodegradable polyethylene glycol based water-insoluble hydrogels” (Ascendis Pharma A/S, priority 2009, dated 2023).

The structures appear in SMILES notation.

The nature of the data set: Injectability: force versus flow using a 30 G needle. The class given is physicochemical. The following applies: 1 mL syringe. As for the experimental part:
5 mL insulin-linker-hydrogel prodrug 29 (bead size distribution from 32-75 μm, 18 mg insulin/ml insulin-linker-hydrogel prodrug suspension) was buffer exchanged into pH 5.0 succinic acid/tris (10 mM, 40 g/L mannitol; 10 g/L trehalose dihydrate; 0.05% TWEEN-20). The insulin-linker-hydrogel prodrug suspension was filled into a 1 mL syringe (length 57 mm) via a 20 G needle. The 20 G needle was replaced by a 30 G needle and placed into the syringe mounting (Aqua Computer GmbH&Co. KG) and the measurement was started with a piston velocity of 172 mm/min (equals 50 μL/s) (Force test stand: Multitest 1-d, Data recording software: EvaluatEmperor Lite, Version 1.16-015, Forge Gauge: BFG 200 N (all Mecmesin Ltd., UK). Experiments with increasing piston velocities shown in the table below were carried out with a new insulin-linker-hydrogel prodrug sample. The experiments with water and ethylene glycol were carried out accordingly. For all of the experiments the same 30 G needle was used.

Turning to `OCCO` [ethylene glycol], the Force by setting is: (flow 6 sec/mL, 167 μL/sec, piston velocity 573 mm/min) 83 N; (flow 8 sec/mL, 125 μL/sec, piston velocity 430 mm/min) 62 N; (flow 10 sec/mL, 100 μL/sec, piston velocity 344 mm/min) 51 N; (flow 15 sec/mL, 67 μL/sec, piston velocity 229 mm/min) 35 N; (flow 20 sec/mL, 50 μL/sec, piston velocity 172 mm/min) 27 N.
